Paper PMC12167809 (The Journal of Biological Chemistry, 2025)

Tested on: β-TrCP1:β-catenin interaction
Type: binding, human
Settings: saturating concentrations of glue, TR-FRET

Structure (SMILES): COc1cc2c(cc1OC)CN(C(=O)c1c(Sc3c(Cl)cccc3Cl)cc(C(F)(F)F)[nH]c1=O)C2 [NRX-252262, 4-((2,6-dichlorophenyl)thio)-3-(5,6-dimethoxyisoindoline-2-carbonyl)-6-(trifluoromethyl)pyridin-2(1H)-one]
- Effect on the β-TrCP1:β-catenin interaction: dramatically enhances the interaction between β-TrCP1 and β-catenin
